Assay results as given in patent EP3070175A1, “TEST FOR DETERMINING SUSCEPTIBILITY OR RESISTANCE TO POLYMYXINS IN ENTEROBACTERIACEAE” (Université de Fribourg, priority 2015, dated 2016).

Key:
E. coli = experiment: Polymyxin test: colorimetric detection of growth (glucose metabolization, phenol red) in presence of colistin sulphate; type: cell-based, Escherichia coli; set-up: key: +, yellow; -, orange; settings: colistin sulphate 3.75 mg/L final, visual colour change, up to 4 h at 37°C
Method: (§1) Each inoculum was prepared by mixing 1 öse (10 µl) of a fresh culture of the tested bacteria in 5 ml of sterile NaCl 0.85% (at a density of 3 Mac Farland, i.e. about 10^9 CFU/ml).
(§2) 250 ml of reactive medium was prepared by mixing the compounds hereafter: • a broth powder of a non selective growth medium for bacteria, the Cation-Adjusted Mueller-Hinton broth (MHB-CA) : 6.25 g • a colour indicator, the phenol red : 0.0125 g • sterile distilled water 225 ml • sterile D (+)-glucose (10 %) anhydrous (sterilization by filtration) : 25 ml
(§3) The pH of the final reactive medium was adjusted to 6.6 and 6.7 with HCl 1M.
(§4) Colistin or polymyxin B was added or not at the concentration of 5 mg/L in the reactive medium. Standard colistin sulphate and polymyxin B were from Sigma Aldrich (Saint-Louis, France). Those antibiotic molecule powders were kept at 4°C before their use, whereas polymyxin dilutions were kept at -20°C.
(§5) For each strain, two wells of a plastic sterile plate with 96 shaped wells were inoculated in parallel with and without polymyxin (colistin sulphate or polymyxin B) in order to compare their colour change.
(§6) Plastic sterile plates were from Sarstedt (Nümbrecht, Germany). The tray may be prepared as follows : • 1. 150 µl of reactive medium colistin free (obtained in 1.) in the first line • 2. 150 µl of reactive medium with 5 mg/l of colistin sulphate in the second line (final concentration = 3.75 mg/l) • 3. 50 µl of NaCl alone in the first column (one well colistin-free and one well with colistin sulphate) (medium control) • 4. 50 µl of the bacterial suspension (obtained in 2.) for the control strains and for every strain in the other column (one well colistin-free and one well with colistin)
(§7) After mixing of the bacterial suspension to the reactive medium by pipetting up and down, the final concentration of bacteria was 2.5.10^8 CFU/ml in each well and the final selective concentration of colistin or polymyxin B in the well with polymyxin was 3.75 mg/L.
(§8) The results of the tests were recorded at 10 min (checking for no spontaneous colour change in the well) and then every hour for a maximum of 4 hours by visual inspection. No colour change of the well with colistin sulphate or polymyxin B indicated susceptibility to colistin sulphate or polymyxin B and negativity of those tests. On the contrary, a colour change (orange to yellow) indicates the positivity of the test meaning growth capability (related to glucose metabolism) in presence of colistin sulphate or polymyxin B, i.e. resistance to colistin sulphate or polymyxin B.
(§9) All experiments were repeated in triplicate.

K. pneumoniae = experiment: as above; type: cell-based, Klebsiella pneumoniae; set-up: key: +, yellow; -, orange; settings: colistin sulphate 3.75 mg/L final, visual colour change, up to 4 h at 37°C
Method: as §1, §2, §3, §4, §5, §6, §7, §8, §9

E. cloacae = experiment: MIC determination, broth microdilution in Cation-Adjusted Mueller-Hinton broth (CLSI); type: cell-based; settings: for Colistin resistance: EUCAST breakpoints
Method: (§10) Determination of MIC values were performed using the reference technique (broth microdilution in Cation-Adjusted Mueller-Hinton broth) according to the CLSI guidelines. Polymyxin B and colistin (Sigma-Aldrich, Saint-Louis) were tested over a range dilution from 0.12 to 128 µg/ml and 5.10^5 CFU/ml of bacteria in each well was used. Following the EUCAST breakpoints (http://www.eucast.org/), strains with a colistin MICs of ≤ 2 µg/ml were categorized as susceptible, although those with MICs of > 2 µg/ml were resistant.
as §9

H. alvei = experiment: as above; type: cell-based; settings: strain ER
Method: as §10, §9

M. morganii = experiment: as above; type: cell-based; settings: strain Mmor
Method: as §10, §9

E. aerogenes = experiment: as above; type: cell-based; settings: strain 6 FR
Method: as §10, §9

K. oxytoca = experiment: as above; type: cell-based; settings: strain C24
Method: as §10, §9

P. stuartii = experiment: as above; type: cell-based; settings: strain Pstu
Method: as §10, §9

C. freundii = experiment: as above; type: cell-based; settings: for Colistin resistance: EUCAST breakpoints
Method: as §10, §9

colistin sulphate
Results of the method of the invention (E. coli; strain 3 FR): - | Results of the method of the invention (E. coli; strain 5 FR): - | Results of the method of the invention (E. coli; strain 10 FR): - | Results of the method of the invention (E. coli; strain 27563): + | Results of the method of the invention (E. coli; strain 27837): + | Results of the method of the invention (E. coli; strain 27850): + | Results of the method of the invention (E. coli; strain 27852): + | Results of the method of the invention (E. coli; strain 30742): + | Results of the method of the invention (E. coli; strain ATCC 25922): - | Results of the method of the invention (E. coli; strain C140): - | Results of the method of the invention (E. coli; strain Top10): - | Results of the method of the invention (K. pneumoniae; strain 1 FR): - | Results of the method of the invention (K. pneumoniae; strain 2 FR): - | Results of the method of the invention (K. pneumoniae; strain 4 FR): - | Results of the method of the invention (K. pneumoniae; strain 9 FR): - | Results of the method of the invention (K. pneumoniae; strain 11 FR): + | Results of the method of the invention (K. pneumoniae; strain 75b): + | Results of the method of the invention (K. pneumoniae; strain AF1b): + | Results of the method of the invention (K. pneumoniae; strain C23): + | Results of the method of the invention (K. pneumoniae; strain C25): + | Results of the method of the invention (K. pneumoniae; strain C26): + | Results of the method of the invention (K. pneumoniae; strain C27): + | Results of the method of the invention (K. pneumoniae; strain C112): - | Results of the method of the invention (K. pneumoniae; strain C115): - | Results of the method of the invention (K. pneumoniae; strain C130): - | Results of the method of the invention (K. pneumoniae; strain C132): - | Results of the method of the invention (K. pneumoniae; strain T1b): + | Colistin MIC (E. cloacae; strain 7 FR): 0.12 mg/L | Colistin resistance (E. cloacae; strain 7 FR): - (strains with a colistin MICs of ≤ 2 µg/ml were categorized as susceptible) | Colistin resistance (E. cloacae; strain C28): + (those with MICs of > 2 µg/ml were resistant) | Colistin MIC (E. cloacae; strain C28, resistance mechanism Unknown): 32 mg/L | Colistin MIC (E. cloacae; strain C129): 0.25 mg/L | Colistin resistance (E. cloacae; strain C129): - (strains with a colistin MICs of ≤ 2 µg/ml were categorized as susceptible) | Colistin MIC (E. cloacae; strain C144): 0.25 mg/L | Colistin resistance (E. cloacae; strain C144): - (strains with a colistin MICs of ≤ 2 µg/ml were categorized as susceptible) | Colistin resistance (E. cloacae; strain HM): + (those with MICs of > 2 µg/ml were resistant) | Colistin MIC (E. cloacae; strain HM, resistance mechanism Unknown): >128 mg/L | Colistin resistance (H. alvei; EUCAST breakpoints): + (those with MICs of > 2 µg/ml were resistant) | Colistin MIC (H. alvei; resistance mechanism Unknown): 16 mg/L | Colistin resistance (M. morganii; EUCAST breakpoints): + (those with MICs of > 2 µg/ml were resistant) | Colistin MIC (M. morganii; Natural resistance): >128 mg/L | Colistin MIC (E. aerogenes): 0.12 mg/L | Colistin resistance (E. aerogenes; EUCAST breakpoints): - (strains with a colistin MICs of ≤ 2 µg/ml were categorized as susceptible) | Colistin resistance (K. oxytoca; EUCAST breakpoints): + (those with MICs of > 2 µg/ml were resistant) | Colistin MIC (K. oxytoca; mgrB promotor truncated with ISKpn26-like): 64 mg/L | Colistin resistance (P. stuartii; EUCAST breakpoints): + (those with MICs of > 2 µg/ml were resistant) | Colistin MIC (P. stuartii; Natural resistance): >128 mg/L | Colistin MIC (C. freundii; strain 8 FR): 0.12 mg/L | Colistin resistance (C. freundii; strain 8 FR): - (strains with a colistin MICs of ≤ 2 µg/ml were categorized as susceptible) | Colistin MIC (C. freundii; strain C136): 0.12 mg/L | Colistin resistance (C. freundii; strain C136): - (strains with a colistin MICs of ≤ 2 µg/ml were categorized as susceptible)
